# Measurements: patent publication US8173693B2, “Benzenesulfonamide derivatives and pharmaceutical composition thereof” (Purzer Pharmaceutical Co., Ltd., priority 2010, dated 2012)
# Entries after “also recorded” stand apart in the source; their conditions may differ.
# Key:
# [1] = test system: lung carcinoma A549 cells; assay: In vitro migration assay (scratch); format: cell-based; conditions: 0, 0.5, or 10 μM, 18 hr, microscope images
# Procedure: Lung carcinoma A549 cells (BCRC 60074; BCRC) were maintained in RPMI 1640 supplied with 10% fetal bovine serum and maintained in a humidified chamber at 37° C. containing 5% CO2. All the cell lines were developed for two generations every week.
# In the in vitro migration assay, a scratch was mechanically made on the monolayer of cells to form a line-shaped scratch with cytological exfoliation. The scratch may lead the edge of the cell monolayer to close.
# When the monolayered A549 cells were saturated, a scratch was made using a 200-μL tip directly on the monolayer of the A549 cells. Cells were then treated with GM119 with a concentration of 0, 0.5, or 10 μM. After incubation for 18 hr, all the migrations were tracked with a microscope.
# [2] = test system: murine mammary carcinoma cell line 4T1-Luc cells; assay: 4T1-Luc cell survival, sulforhodamine B staining; format: cell-based
# Procedure: The murine mammary carcinoma cell line 4T1-Luc cells stably expressing the firefly luciferase gene under the selection of G418 was cultured in RPMI containing 10% fetal calf serum. The cells were maintained at 37° C. with 5% CO2 in air and subcultured twice weekly.
# Each well of 96-well plates was seeded with 2,500 or 5,000 tumor cells, and the tumor cells were incubated in medium with 10% fetal bovine serum or without serum. The tumor cells were treated with 0, 0.01, 0.1, 1, or 10 μM of GM119 for 48 hr. Then, the tumor cells were fixed with 10% of trichloroacetic acid, washed with water, stained with sulforhodamine B. Then, the sample was washed with 1% of acetic acid, and Tris buffer was added into the sample. The absorption of the sample was determined at 515 nm with a Thermomax microplate reader, and repeated for 4 times. The absorption of the cells without drug treatment served as 100% survival, and the survival was calculated and represented by average±standard deviation %.
# tumor cells = assay: Preliminary cytotoxicity assays (MTT, SRB), tumor cell panel; format: cell-based; conditions: comparison over Tables 1-4
# Procedure: Human Bladder Cancer TSGH cells, Human hepatoblastoma HepG2 cells, Human colorectal adenocarcinoma HT-29 cells, human nasopharyngeal carcinoma KB cells, Human gastric adenocarcinoma AGS cells, Human breast carcinoma MCF-7 cells, lung carcinoma A549 cells, and Human prostate carcinoma PC-3 cells were used in the preliminary cytotoxicity assays of the benzenesulfonamide derivatives of the present invention, and the inhibition activity against the tumor cells was evaluated.
# (§1) All cell lines were maintained in RPMI 1640 supplied with 10% fetal bovine serum and maintained in a humidified chamber at 37° C. containing 5% CO2. Then, all cell lines were treated with compounds for 72 hr and subsequently incubated with 0.4 mg/mL of MTT at 37° C. for 2 hr. The medium was removed, and DMSO was added to dissolve MTT precipitate. Cell proliferation was determined by measuring the optical density at 540 nm using a Thermomax microplate reader (Molecular Devices, Sunnyvale, Calif.), and the IC50 values of the benzenesulfonamide derivatives of the present invention were calculated.
# All cell lines were maintained in RPMI 1640 supplied with 10% fetal bovine serum into 96-well microtiter plates and maintained in a humidified chamber at 37° C. containing 5% CO2. After 24 hr, cell lines in partial wells were fixed in situ with 10% trichloroacetic acid (TCA) to represent a measurement at the time of drug addition (T0). Then, cell lines in other wells were incubated with the benzenesulfonamide derivatives of the present invention for an additional 48 hr, and fixed in situ with 10% TCA to represent a measurement at the time of stopping reaction (Tx). […] Cell proliferation was determined by measuring the optical density at 515 nm using a Thermomax microplate reader (Molecular Devices, Sunnyvale, Calif.). The half-inhibition concention (GI50) of the benzenesulfonamide derivatives of the present invention was obtained from the detected optical density.
# [3] = test system: CL1-5 non-small cell lung cancer; assay: SRB assay; format: cell-based; conditions: 48 hr
# Procedure: (§2) All cell lines were maintained in RPMI 1640 supplied with 10% fetal bovine serum into 96-well microtiter plates and maintained in a humidified chamber at 37° C. containing 5% CO2. After 24 hr, cell lines in partial wells were fixed in situ with 10% trichloroacetic acid (TCA) to represent a measurement at the time of drug addition (T0). Then, cell lines in other wells were incubated with the benzenesulfonamide derivatives of the present invention for an additional 48 hr, and fixed in situ with 10% TCA to represent a measurement at the time of stopping reaction (Tx). After rinsing the plates with PBS and air-drying, 0.4% sulforhodamine B solution (weight per volume in 1% acetic acid) was added to each well and the plates were incubated for 10 min at room temperature. Unbound sulforhodamine B was removed with 1% acetic acid and the plates were air-dried. Cells bound with sulforhodamine B was subsequently solubilized with 10 mM Tris base (Trizma; Sigma). Cell proliferation was determined by measuring the optical density at 515 nm using a Thermomax microplate reader (Molecular Devices, Sunnyvale, Calif.). The half-inhibition concention (GI50) of the benzenesulfonamide derivatives of the present invention was obtained from the detected optical density.
# [4] = test system: H1299 non-small cell lung cancer; assay: SRB assay; format: cell-based; conditions: Homo sapiens, NCI-H1299, 48 hr
# Procedure: as §2
# HeLa Cervical cancer [5] = assay: SRB assay; format: cell-based; conditions: Homo sapiens, 48 hr
# Procedure: as §2
# [6] = test system: MCF-7/ADR multidrug-resistant breast cancer; assay: SRB assay; format: cell-based; conditions: Homo sapiens, NCI/ADR-RES
# Procedure: as §2
# [7] = test system: WSI Normal skin fibroblast; assay: MTT assay; format: cell-based
# Procedure: as §1
# HeLa Cervical cancer [8] = assay: MTT assay; format: cell-based; conditions: Homo sapiens, 72 hr
# Procedure: as §1
# COLO-205 Colon cancer = assay: MTT assay; format: cell-based; conditions: Homo sapiens, 72 hr
# Procedure: as §1
# [9] = test system: WI-38 Normal lung fibroblast; assay: MTT assay; format: cell-based; conditions: Homo sapiens
# Procedure: as §1
# 4T1-Luc cells = assay: In vivo evaluation, long-time treatment, mice implanted with 4T1-Luc cells
# Procedure: GM119 (25 mg/kg) and Taxol (10 mg/kg) were simultaneously applied to a mouse implanted with 4T1-Luc cells for a long time to observe the effect of GM119 on the 4T1-Luc cells.
# A suspension of 4T1-Luc cells in matrigel was injected into the breast adipocyte to obtain mice implanted with luciferase tumor cells. […] When the size of the tumor cells was achieved to 200-500 mm^3, the mice were divided into […], and the number of the mice in each group is ≧5. Then, 0/0, 0/25, 10/[…], or 10/0 mg/kg of Taxol/GM119 was abdominal-injected into the mice every two days until death of the mice, wherein GM119 and Taxol were dissolved in cremophor, and the volume of injection to each mouse is 50 μl. The weight and the number of the mice were recorded every day to analyze the change on the weight and the survival time of the mice. After the drugs were applied to the mice, the size of the tumor cells in the mice was evaluated with bioluminescence every two days.
smiles,measurement,setting,value
"COc1ccc(S(=O)(=O)Nc2cccc3c2[nH]c2c(C)ccc(C)c23)cc1 [Compound 6c, N-(5,8-Dimethyl-9H-carbazol-1-yl)-4-methoxybenzenesulfonamide]",inhibition on the migration of the A549 cells,[1],the inhibition on the migration of the A549 cells was greater as the concentration of the GM119 was increased
same,growth of the 4T1 cells,"[2]; 0.01 μM, 48 hr, medium with or without serum, FIG. 1",the growth of the 4T1 cells can be inhibited
same,inhibition of the 4T1 cells,"[2]; 10 μM, 48 hr, FIG. 1",the inhibition of the 4T1 cells is apparent
same,killing of 4T1 cells (FIG. 1 legend),[2]; in vitro assay,kills the murine mammary carcinoma 4T1 cell
same,inhibitory activity against the tumor cells (in words),tumor cells,has the best inhibition activity; also recorded: has the highest inhibitory activity
same,GI50,[3],0.26 µM
same,GI50,[4],0.46 µM
same,GI50,HeLa Cervical cancer [5],0.19 µM
same,GI50,[6],0.39 µM
same,IC50,[7],> 10 µM
same,IC50,HeLa Cervical cancer [8],0.6 µM
same,IC50,COLO-205 Colon cancer,0.05 µM
same,IC50,[9],> 10 µM
same,survival of the mice,"4T1-Luc cells; long time: Taxol 10 mg/kg and/or GM119 25 mg/kg abdominal-injected every two days until death, FIG. 3",the survival time of the mice is the longest
same,growth of the tumor cells (bioluminescence),4T1-Luc cells; long-time treatment,the growth of the tumor cells can be inhibited
